Assay results published in ChEMBL document CHEMBL2021773, “Isolation, structure elucidation, and antibacterial activity of methiosetin, a tetramic acid from a tropical sooty mold (Capnodium sp.)” (2012).
In brackets after ≈: the same amount, converted by molar mass. Activity calls are given as the source filed them. The calls are words filed in the database; no cut-off is given here.

Columns and labels:
Staphylococcus aureus [1] = assay: Antibacterial activity against Staphylococcus aureus EP167 by two fold serial broth dilution method; format: functional
Haemophilus influenzae = assay: Antibacterial activity against Haemophilus influenzae by two fold serial broth dilution method; format: functional
Staphylococcus aureus [2] = assay: Potency ratio, ratio of methiosetin MIC to compound MIC for Staphylococcus aureus EP167 by two fold serial broth dilution method; format: functional
Staphylococcus aureus [3] = assay: Antibacterial activity against Staphylococcus aureus Smith at 64 ug/mL by two fold serial broth dilution method; format: functional, organism-based
Enterococcus faecalis = assay: Antibacterial activity against Enterococcus faecalis at 64 ug/mL by two fold serial broth dilution method; format: functional, organism-based
Streptococcus pneumoniae = assay: Antibacterial activity against Streptococcus pneumoniae at 64 ug/mL by two fold serial broth dilution method; format: functional, organism-based
Escherichia coli = assay: Antibacterial activity against Escherichia coli at 64 ug/mL by two fold serial broth dilution method; format: functional, organism-based

Row | Structure (SMILES) | MIC (Staphylococcus aureus [1]) | MIC (Haemophilus influenzae) | Ratio (Staphylococcus aureus [2]) | inhibition (Staphylococcus aureus [3]) | inhibition (Enterococcus faecalis) | inhibition (Streptococcus pneumoniae) | inhibition (Escherichia coli)
1 | O=C1C=C[C@H](O)[C@@H]2[C@@H]1C[C@@]13SS[C@]4(C[C@@H]5C(=O)C=C[C@H](O)[C@H]5N4C1=O)C(=O)N23 [EPICORAZINE A] | 32 µg/mL (≈ 76.1 µM) | 0.5 µg/mL (≈ 1.19 µM) | 8 |  |  |  | 
2 | CC(O)C1C(O)=C(C(=O)[C@H]2[C@@H]3CCCC[C@H]3C=C[C@H]2C)C(=O)N1C (some centres undefined) [METHIOSETIN] | 256 µg/mL (≈ 768 µM) | 32 µg/mL (≈ 96 µM) |  | inactive | inactive | inactive | inactive
